# Test results taken from US4419364A, “Bronchospasmolytic carbamate derivatives” (priority 1980, dated 1983).
# Where “and” joins values, the source holds several entries; their conditions need not be identical. Equal entries are not always repeated. Entries after “also recorded” stand apart in the source; their conditions may differ. Structures can show the parent of a compound that is named as a salt. Where two headings read alike, the source gives them in different places.
# Columns and labels:
# [1] = test system: isolated tracheal muscle from guinea-pig; assay: In vitro test on isolated guinea-pig trachea (relaxation of pilocarpine-contracted trachea); conditions: for EC50: Cavia porcellus, pilocarpine-contracted, eserine 1·10^-6 mol/l, read-out: Concentration of test substance producing 50% relaxation of the trachea (EC50)
# Protocol: The trachea from guinea-pigs was dissected out, cut spirally and transferred to a 10 ml organ bath containing Krebs solution of 37° and aerated with carbogen. The tracheal strip was contracted by pilocarpine (4·10^-6 mol/l) producing a tension of about 1.5 g. Isometric recording was made by use of a transducer FT03 and Grass polygraph 7D. Before the administration of the test compound the esterase inhibitor eserin was added to the bath in a concentration of 1·10^-6 mol/l. The concentration of the test substances which produces 50% relaxation (EC50) of the pilocarpine contracted trachea was recorded as well as potentiating or inhibiting influence of the test substances of the invention on the relaxing effect of terbutaline. In this last mentioned test the muscle preparation was pretreated with the test compounds during 5 minutes, before the response of terbutaline was recorded.
# [2] = In vitro test on isolated guinea-pig auricles (chronotropic and inotropic effect); design: species or system guinea-pig (Dunkin Hartley, male); conditions: guinea pig, isolated auricles; relative values; eserine 1·10^-6 mol/l; read-out: Chronotropic effect on isolated auricle (relative values)
# Protocol: (§1) Male guinea-pigs strain Dunkin Hartley (400-500 g) were used. After bleeding and removal of the heart the auricles were dissected free from the ventricular part and submerged into carbogen aerated Krebs solution of 37°. The frequency and force of the spontaneously beating preparation was recorded by a Grass transducer FT03. In the polygraph (Grass 7D) the signals from the isometric transducer passed a trigger function from the drive amplifier to the tachograph to record the rate.
# (§2) The esterase inhibitor eserine was added to a concentration of 1·10^-6 mol/l in the organ bath before the drugs to be tested were added. The intrinsic activity of the test compounds on the heart preparation, that is their effect on heart rate (chronotropic effect) and their effect on the force of the heart beats (inotropic effect), and their possible interaction with terbutaline was studied.
# [3] = test system: isolated auricles from guinea-pig heart; assay: as above; design: species or system guinea-pig (Dunkin Hartley, male)
# Protocol: as §1, §2
# [4] = Duration of serum levels of terbutaline after oral administration of test compounds to unanaesthetized dogs; type: in vivo, dogs (Beagle, male); conditions: for concentration at 1 h: 1 hour after administration; for concentration at 2 h: 2 hours after administration; for concentration at 3 h: 3 hours after administration; for concentration at 4 h: 4 hours after administration; for concentration at 6 h: 6 hours after administration
# Protocol: (§3) Five dogs (Beagle, .male., 13-18 kg) have been used repeatedly in the study. Each dog was used at most once a week. Food was withheld from the animals the night before the experiment (water ad libitum). The test compound was dissolved in 8 ml of distilled water, and delivered into the back of the mouth by use of a syringe and a short tube. This oral supply was followed by a water rinse of 8 ml.
# (§4) The blood was collected from the cephalic veins in the forelegs by use of evacuated tubes. The esterase inhibitor diisopropylfluophoshate (DFP) was added, the samples centrifugated (+5°) and the amount of terbutaline in plasma determined by a massfragmentographic analysis method. The serum level of terbutaline indicates the degree of bronchospasmolytic effect of the test compounds.
# (§5) The amounts of the test substances to be administered were selected so that the level of terbutaline corresponds to the serum levels obtained and found effective in patients at clinical use, that is a level of terbutaline of at least 2 ng/ml serum for 6 to 8 hours. The doses of the test substances of the invention were selected so that the serum levels of terbutaline obtained would correspond approximately with the serum levels obtained after administration of terbutaline per se.
# The test results are given in Table 1 below, where the time course of the serum level of terbutaline in the test animals is given. Each set of serum levels is the result of test in one dog. The boxed time interval represents the interval where a clinically effective serum level of terbutaline is obtained. Thus, the boxed interval represents the clinically useful duration of the test compounds.
# [5] = test system: histamine-induced bronchospasm in unanaesthetized guinea-pigs; assay: Protecting effect against histamine-induced bronchospasm after oral administration in guinea-pigs; type: in vivo, guinea-pigs (Dunkin-Hartley, male); conditions: for ED50: Cavia porcellus, 0.05 h, histamine aerosol, read-out: Dose protecting 50% of the test animals for more than 3 minutes (ED50)
# Protocol: Male guinea-pigs, Dunkin-Hartley strain, 150-200 g, were used in the study. The animals were starved for about 15 hours (water ad libitum) before the administration, by a stomach tube, of test compound or vehicle (controls). To establish an adequate time period between administration and histamine exposure, the maximum plasma level of terbutaline produced from the hydrolysis of the given pro-drugs of terbutaline was determined. Thus, blood samples (in pre-experimental series) were collected from guinea-pigs at different times after the administration of the test compound and the plasma level of tarbutaline was determined by a massfragmentographic analysis. A peak in the plasma turbutaline was noted 50-60 minutes after the administration, and this time was selected as time for start of histamine exposure.
# The histamine aerosol was generated by Bird inline nebulizers from a solution containing 0.02% histamine-HCl and 3% glycerole. The protecting effect was estimated from the delay in appearance of signs of anoxia in drug-treated animals. […] Drug-treated guinea-pigs without any signs of respiratory influence from the histamine during these first 3 minutes were denoted as protected.
# [6] = test system: heart rate in dogs; assay: In vivo test on the effect on the heart rate in dogs; design: species or system dogs (Beagle, male); conditions: oral; for Slope of the line of increase in heart rate vs. logarithm of corresponding serum conc.: serum conc. of terbutaline; for Slope of the line of increase in heart rate vs. logarithm of corresponding serum conc. / Correlation coefficient (increase in heart rate vs. logarithm of serum conc.): terbutaline 0.01-0.1 mg/kg, test compound 0.3-3 mg/kg
# Protocol: as §3, with “solved” for “dissolved”
# as §4, with “diisopropylfluophosphate” for “diisopropylfluophoshate”
# as §5, with “level of terbutaline, when administered per se, corresponds to” for “level of terbutaline corresponds to”
# The heart rate was determined by a stethoscope (the mean of three determinations during a 5-minute periode) before the administration of drug and before each blood sampling.
# The relative effect of the test compounds on the heart rate of the test animals was illustrated by plotting in a diagram the increase in heart rate measured at a certain serum concentration of terbutaline versus the logarithm of the said terbutaline concentration in serum. Only values before and up to the maximal increase in heart rate were used. This method will produce a graph consisting of a substantially straight line. When such a line is drawn from each test compound, it can be seen from the slope of the line how the heart rate is correlated to the serum concentration of the test compound.
# [7] = cited from earlier work; for Duration of bronchospasmolytic activity, in words: relative to a marketed comparator
# [8] = dog, serum, po, 0.03 mg/kg, read-out: Serum level of terbutaline
# [9] = dog, serum, po, 0.1 mg/kg, read-out: Serum level of terbutaline
structure (smiles),measurement,setting,value
"CN(C)C(=O)Oc1cc(OC(=O)N(C)C)cc(C(O)CNC(C)(C)C)c1 (stereo not shown) [I, 1-[bis-(3',5'-N,N-dimethylcarbamoyloxy)phenyl]-2-N-tert.butylaminoethanol hydrochloride]",Potentiating or inhibiting effect of the test substance on the bronchodilating effect of terbutaline,"[1]; 5 minutes pretreatment, hydrochloride",none and No potentiating or inhibiting activity
same,EC50,[1],> 20000 nM
same,"Bronchodilating effect (intrinsic), in words","[1]; isolated guinea-pig trachea, hydrochloride",did not produce any bronchodilating effect; also recorded: did not exert any intrinsic bronchodilating effect
same,Emax,[2],0%
same,"Chronotropic or inotropic effect, in words",[3]; isolated guinea-pig auricles,did not show any chronotropic or inotropic effect
same,Potentiating or inhibiting effect on the chronotropic and inotropic effect of terbutaline,[3]; test compound in same concentration as terbutaline,No potentiating or inhibiting effect
same,Duration of terbutaline serum level of 2 ng/ml or more,"[4]; p.o., dogs",≥ 16 h
same,Duration of clinically useful serum level relative to terbutaline,"[4]; p.o., dogs, terbutaline 2 ng/ml serum or higher",at least twice as long
same,ED50,[5],2.7 mg/kg and 6.7 µmol/kg
same,Bronchospasmolytic potency relative to terbutaline,"[5]; on molar basis, in words",less potent than the reference substance terbutaline
same,"Increase in heart rate relative to terbutaline, in words",[6]; hydrochloride,relatively much lower increase in heart rate than the reference compound terbutaline; also recorded: considerably reduced stimulating effect on the heart rate compared with the heart rate stimulating effect of terbutaline
same,Slope of the line of increase in heart rate vs. logarithm of corresponding serum conc.,[6],0.63
same,Correlation coefficient (increase in heart rate vs. logarithm of serum conc.),[6],0.9324
Cc1ccc(C(=O)Oc2ccc(C(O)CNC(C)(C)C)cc2OC(=O)c2ccc(C)cc2)cc1 (stereo not shown) [bitolterol],"Duration of bronchospasmolytic activity, in words",[7],comparable with that of salbutamol
"CC(C)(C)NCC(O)c1ccc(O)c(CO)c1 (stereo not drawn) [salbutamol, α-(tert.)-butylaminomethyl-4-hydroxy-m-xylene-α-diolsulphate]","Duration of bronchospasmolytic activity, in words",[7],about equal to the duration of terbutaline
"CC(C)(C)NCC(O)c1cc(O)cc(O)c1 (stereo not shown) [terbutaline, 1-(3',5'-dihydroxyphenyl)-2-t-butylaminoethanol sulphate]",EC50,[1],210 ± 50 nM
same,Emax,[2],100%
same,Inotropic effect on isolated auricle (relative values),"[3]; relative values, eserine 1·10^-6 mol/l",1.0
same,concentration at 1 h,[4]; [8],4.8 ng/mL
same,concentration at 2 h,[4]; [8],2.9 ng/mL
same,concentration at 3 h,[4]; [8],2.4 ng/mL
same,concentration at 4 h,[4]; [8],2.2 ng/mL
same,concentration at 6 h,[4]; [8],1.9 ng/mL
same,concentration at 1 h,[4]; [9],5.7 ng/mL
same,concentration at 2 h,[4]; [9],13.7 ng/mL
same,concentration at 3 h,[4]; [9],9.2 ng/mL
same,concentration at 4 h,[4]; [9],6.1 ng/mL
same,concentration at 6 h,[4]; [9],3.4 ng/mL
same,concentration at 8 h,"[4]; dog, serum, po, 0.1 mg/kg, 8 hours after administration, read-out: Serum level of terbutaline",2.2 ng/mL
same,concentration at 12 h,"[4]; dog, serum, po, 0.1 mg/kg, 12 hours after administration, read-out: Serum level of terbutaline",1.1 ng/mL
same,concentration at 16 h,"[4]; dog, serum, po, 0.1 mg/kg, 16 hours after administration, read-out: Serum level of terbutaline",0.8 ng/mL
same,concentration at 24 h,"[4]; dog, serum, po, 0.1 mg/kg, 24 hours after administration, read-out: Serum level of terbutaline",0.35 ng/mL
same,ED50,[5],0.4 mg/kg and 1.5 µmol/kg
same,Slope of the line of increase in heart rate vs. logarithm of corresponding serum conc.,[6],1.04
same,Correlation coefficient (increase in heart rate vs. logarithm of serum conc.),[6],0.9598
same,Serum concentration of terbutaline necessary for desired therapeutic activity,[7]; Hornblad et al. (1976),at least 2 ng/ml
same,Duration of terbutaline serum level at clinical use,"[7]; normally obtained at clinical use of terbutaline, 2 ng/ml",about 8 hours
